According to ChEMBL document CHEMBL1649553, “Characterization of ermA in macrolide-susceptible strains of methicillin-resistant Staphylococcus aureus” (2009):
Converted amounts (≈) assume the structure as drawn.

Test system: Staphylococcus aureus
Experiment: Antibacterial activity against methicillin-resistant Staphylococcus aureus
Type: functional

Row | SMILES | MIC
1 | CCC[C@@H]1C[C@@H](C(=O)N[C@@H]([C@H]2O[C@H](SC)[C@H](O)[C@@H](O)[C@H]2O)[C@H](C)Cl)N(C)C1 [CLINDAMYCIN] | 0.5 µg/mL (≈ 1.18 µM)
2 | CC[C@H]1OC(=O)[C@H](C)[C@@H](O[C@H]2C[C@@](C)(OC)[C@@H](O)[C@H](C)O2)[C@H](C)[C@@H](O[C@@H]2O[C@H](C)C[C@H](N(C)C)[C@H]2O)[C@](C)(O)C[C@@H](C)C(=O)[C@H](C)[C@@H](O)[C@]1(C)O [ERYTHROMYCIN] | 0.25 µg/mL (≈ 0.341 µM)
